Assay [1] deals with p38 MAPK (Homo sapiens, UniProt Q16539). The experiment in a line: In vitro binding of p38 MAPK, SPRi. As for the experimental part:
Example 14—In Vitro Binding of p38 MAPK
Various concentrations of p38 MAPK dissolved in water were manually printed onto a bare gold-coated (thickness 47 nm) PlexArray Nanocapture Sensor Chip (Plexera Bioscience, Seattle, WA, US) at 40% humidity. Each concentration was printed in replicate, and each spot contained 0.2 μL of protein solution. The chip was incubated in 80% humidity at 4° C. for overnight, and rinsed with 10×PBST for 10 min, 1×PBST for 10 min, and deionized water twice for 10 min. The chip was then blocked with 5% (w/v) non-fat milk in water overnight, and washed with 10×PBST for 10 min, 1×PBST for 10 min, and deionized water twice for 10 min before being dried under a stream of nitrogen prior to use.
Surface Plasmon Resonance Imaging (SPRi) measurements were performed with PlexAray HT (Plexera Bioscience, Seattle, WA, US). Collimated light (660 nm) passes through the coupling prism, reflects off the SPR-active gold surface, and is received by the CCD camera. Buffers and samples were injected by a non-pulsatile piston pump into the 30 μL flowcell that was mounted on the coupling prism. Each measurement cycle contained four steps: washing with PBST running buffer at a constant rate of 2 μL/s to obtain a stable baseline, sample injection at 5 μL/s for binding, surface washing with PBST at 2 μL/s for 300 s, and regeneration with 0.5% (v/v) H3PO4 at 2 μL/s for 300 s. All the measurements were performed at 4° C.
The signal changes after binding and washing (in AU) are recorded as the assay value. Selected protein-grafted regions in the SPR images were analyzed, and the average reflectivity variations of the chosen areas were plotted as a function of time. Real-time binding signals were recorded and analyzed by Data Analysis Module (DAM, Plexera Bioscience, Seattle, WA, US). Kinetic analysis was performed using BIAevaluation 4.1 software (Biacore, Inc.).

In assay [2] the test system is Bleomycin-induced IPF. Put plainly: Treatment of bleomycin-induced IPF in mice. It counts as in vivo. An excerpt: Example 16: Effect of Compound 7 in the Treatment of Bleomycin-Induced IPF Timed pregnant mice (n=30) were selected for the study. The delivered pups were subcutaneously injected on the post-natal day 2 (PND-2) with 1.5 U/kg of Bleomycin (intra-tracheal) and were allowed to remain with the mother until they reached the weanling age. After weanling, the male pups were selected and fed with 60% kcal fat diet (Research Diet-D12492) for the next week. All the animals were observed twice daily for clinical signs. Mice were orally dosed with vehicle, test compounds and reference compound (Pirfenidone) twice daily morning (9.00 AM) and evening before the start of dark cycle (6:00 PM) from day 0 to 14. Animal body weight measurements were made daily for the complete duration of the experiment. Animals were dosed for 14 days with the test and reference compounds. Lung hydroxyproline level was estimated before the treatment start and on the termination day 14. Total cell count and differential leukocyte count in BALF were measured before the treatment start and on […]. Histopathology analysis in the form of H&E Ashcroft score was performed for the lung tissues. All the H&E stained tissue sections were examined by light microscopy. As per the below grading system (Kleiner et al., 2005) in 200× objective lens, IPF scoring was carried out. Collagen Proportion Area (% CPA) Measurement: Masson's Trichrome Staining All the Masson's trichrome stained tissue sections were examined by light microscopy in 100× objective lens. Randomly selected five fields (approx 684.85 μm×917.11m per field) from each lung were subjected to collagen proportion area measurement by using Image Pro Premier 9.1 software. The percentage of collagen proportion area was calculated by dividing collagen tissue area by total tissue area.

The text below walks through data of patent US12071431B2, “Pyridin-sulfonamide compounds for the treatment of conditions related to interleukin 1 beta” (ALLINKY BIOPHARMA, priority 2018, dated 2024).

pKd: −log10 of the molar value.

Chain of p38 MAPK (Q16539 2-360): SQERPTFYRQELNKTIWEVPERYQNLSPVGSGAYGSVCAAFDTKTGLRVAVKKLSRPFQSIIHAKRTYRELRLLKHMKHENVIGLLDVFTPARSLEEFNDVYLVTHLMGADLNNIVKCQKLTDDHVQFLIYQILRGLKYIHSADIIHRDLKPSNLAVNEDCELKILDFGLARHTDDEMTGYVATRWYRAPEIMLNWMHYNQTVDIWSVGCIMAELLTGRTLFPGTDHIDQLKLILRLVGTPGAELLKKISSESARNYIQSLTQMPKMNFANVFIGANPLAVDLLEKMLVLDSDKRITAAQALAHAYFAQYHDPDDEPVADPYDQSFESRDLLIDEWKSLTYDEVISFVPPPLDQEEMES

Broadly, the pKd is −log10 of the Kd, conventionally taken in molar units. Consider `CCOc1ccc(Oc2cc(S(=O)(=O)N(C)C)cnc2N2CCC(Oc3ccc(Cl)cc3)CC2)cc1` [Compound 7], for which the pKd in assay [1] (SPRi, 4° C., p38 MAPK, read-out: equilibrium dissociation constant (KD Value)) was 7.92. Moreover, the kon in assay [1] (read-out: Ka) came to 20800 M⁻¹ s⁻¹. Also, the koff in assay [1] (read-out: Kd) was found to be 0.000248 s⁻¹. The lung hydroxyproline levels result in assay [2] (15 mg/kg dose, oral twice daily, 14 days, vs Bleomycin control, FIG. 4) was “significantly reduced”. In assay [2] (Compound 7 15 mg/kg vs 100 mg/kg Pirfenidone), the “reduction of lung hydroxyproline levels compared with Pirfenidone” value was “higher than for 100 mg/kg Pirfenidone”. Moreover, the BALF macrophage counts result in assay [2] (compared with Bleomycin control, Compound 7 p>0.05, Pirfenidone p<0.05, FIGS. 5A and 5B) was “reduced”. In addition, the “% CPA (Collagen Proportion Area)” value in assay [2] (lung, Masson's trichrome, in comparison with Bleomycin control, p<0.05, FIG. 6B) is on record as “significant reduction”. In assay [2] (lung, in comparison with Bleomycin control, p<0.05, FIG. 6A), the “fibrosis score (H&E Ashcroft Score)” value was “significant reduction”.
